Assay results reported in PMC12042115 (mLife, 2025).
In brackets after ≈: the same amount, converted by molar mass.

Tests used:
[1] = target: Mtb ClpP1P2 (Mycobacterium tuberculosis, UniProt P9WPC3+P9WPC5); test: k obs/[I] determination from progress curves; assay type: biochemical; details: no pre‐incubation, 50 nM ClpP1P2, 200 µM substrate
Experimental: 10 µM ClpP1P2 was pre‐incubated with 10 µM GDI‐5755 or DMSO solvent for 60 min at room temperature. To induce the formation of the [EI] complex, 0.5 mM Bz‐HT was also added. The mixture was diluted 100‐, 200‐, or 400‐fold to a 50 µl final volume with the peptidase reaction buffer and 20 μM substrate to start the jump dilution experiment. Fluorescence was recorded every 5 min continuously over a 220‐min course. To determine the k obs of the competitive inhibitor, the compound was dispended into a black 384‐well plate in a twofold concentration gradient from 20 µM to 0.5 µM. Without pre‐incubation, the other components (50 nM ClpP1P2, 200 µM substrate, and 0.5 mM Bz‐HT in the PIPES buffer as above) were added like in the peptidase degradation assay. The progress was monitored by continuously recording the fluorescence readouts. The fluorescence vs reaction time in seconds was fitted into Equation (2) using GraphPad Prism 10. (2) [P]=νst+νi−νs/kobs[1−exp(−kobst)] where P represents the product concentration, v s is the steady‐state reaction rate (0 in this case), v i is the initial rate, t is a time point, and k obs is the first‐order rate constant for onset of inhibition. The k obs values obtained were plotted against the inhibitor concentration and fitted into linear regression to yield k obs/[I] values as the slope, indicating the inhibition potency of the compound.

[2] = system: GH200 (scrambled sgRNA control); assay type: cell-based, M. bovis BCG
[3] = system: M. tuberculosis H37Rv; design: method as in PubChem; details: ref PubChem; cited from earlier work
[4] = system: M. tuberculosis H37Rv; test: MIC against Mtb H37Rv; assay type: cell-based, Mycobacterium tuberculosis; details: Mycobacterium tuberculosis, H37RV

Sequence of Mtb ClpP1P2 (P9WPC3 16-214, one chain of several): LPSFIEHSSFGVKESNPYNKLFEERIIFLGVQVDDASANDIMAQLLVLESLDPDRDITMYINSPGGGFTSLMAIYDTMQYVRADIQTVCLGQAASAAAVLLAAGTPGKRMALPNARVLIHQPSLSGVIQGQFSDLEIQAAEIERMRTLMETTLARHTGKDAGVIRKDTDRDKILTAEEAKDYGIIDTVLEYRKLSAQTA

For `O=C(Oc1ccc(Cl)cc1)c1ccc(N2CCOCC2)c([N+](=O)[O-])c1` [GDI‐5755], the “inactivation efficiency k obs/[I]” value [1] is listed as 178 ± 10.7 M⁻¹ s⁻¹, the “MIC shift against GH200 on ATc induction” value [2] is listed as “did not show shifting” and the “MIC against H37Rv, reported” value [3] is listed as 3.16 µM (≈ 1.15 µg/mL). It also gave an MIC90 [4] of 100 µM (≈ 36.3 µg/mL).
